Legend:
[1] = system: Human patients diagnosed as having kerratoconjunctivitis sicca (KCS; dry eye); test: Conjunctival lissamine green staining in dry eye patients treated with eye drops; assay type: in vivo; conditions: day 42, patients with Schirmer score <5 mm/5 min and SPK score at least 3
Experimental: Human patients diagnosed as having kerratoconjunctivitis sicca (KCS; dry eye) were treated with eye drops containing either various concentrations of tacrolimus, a macrolide compound according to the invention or placebo. Eye drops were administered 3 times per day for six weeks (42 days). Patients were evaluated using the Schirmer test; corneal fluorescein staining, conjunctival lissamine green staining and an ocular discomfort score. Conjunctival lissamine green staining was performed by instilling a drop of lissamine green ophthalmic solution into the cul-de-sac of the eye. Following instillation, punctate staining was evaluated for the nasal and temporal interpalpebral conjunctiva using the following scoring system: [table]

[2] = system: Human patients diagnosed as having kerratoconjunctivitis sicca (KCS; dry eye); test: Ocular discomfort score in dry eye patients treated with eye drops; assay type: in vivo; conditions: day 42, patients with Schirmer score <5 mm/5 min and SPK score at least 3
Experimental: Human patients diagnosed as having kerratoconjunctivitis sicca (KCS; dry eye) were treated with eye drops containing either various concentrations of tacrolimus, a macrolide compound according to the invention or placebo. Eye drops were administered 3 times per day for six weeks (42 days). Patients were evaluated using the Schirmer test; corneal fluorescein staining, conjunctival lissamine green staining and an ocular discomfort score. Patients were also evaluated based on ratings of their ocular discomfort, which was a composite of scores for burning/stinging, irritation, photophobia, dry eye sensation and foreign body sensation. Scoring was on a five-point scale, as follows: [table]

[3] = 0.01% eye drops 3 times per day
[4] = 0.06% eye drops 3 times per day

In the case of `C=CCC1/C=C(\C)CC(C)CC(OC)C2OC(O)(C(=O)C(=O)N3CCCCC3C(=O)OC(/C(C)=C/C3CCC(O)C(OC)C3)C(C)C(O)CC1=O)C(C)CC2OC` (stereo not shown) [macrolide compound], the “lissamine green staining decrease from baseline” value [1, 3] is reported as 1.8±1.47 units, the “lissamine green staining decrease from baseline” value [1, 4] is reported as 3.9±2.03 units and the “mean ocular discomfort decrease from baseline” value [2, 3] is reported as 6.0±4.43 units. For the same molecule, the “mean ocular discomfort decrease from baseline” value [2, 4] was 6.8±3.01 units.

Reference: US20040198763A1, “Method of treating dry eye with a macrolide compound” (Sucampo AG, priority 2003, published 2004)
